Data published in ChEMBL document CHEMBL2401684, “Synthesis and evaluation of a conditionally-silent agonist for the α7 nicotinic acetylcholine receptor” (Bioorg Med Chem Lett, 2013).
The source made the active and inactive calls. The calls are words filed in the database; no cut-off is given here.

Assays:
[1] = target: Neuronal acetylcholine receptor subunit alpha-7 (Rattus norvegicus) (UniProt Q05941); test: Agonist activity at rat alpha7 nAChR expressed in Xenopus laevis oocytes assessed as induction of acetylcholine-stimulated peak inward current by two-electrode voltage clamp assay; type: cell-based; details: Oocyte
Neuronal acetylcholine receptor subunit alpha-7 (Rattus norvegicus), sequence (Q05941 whole entry): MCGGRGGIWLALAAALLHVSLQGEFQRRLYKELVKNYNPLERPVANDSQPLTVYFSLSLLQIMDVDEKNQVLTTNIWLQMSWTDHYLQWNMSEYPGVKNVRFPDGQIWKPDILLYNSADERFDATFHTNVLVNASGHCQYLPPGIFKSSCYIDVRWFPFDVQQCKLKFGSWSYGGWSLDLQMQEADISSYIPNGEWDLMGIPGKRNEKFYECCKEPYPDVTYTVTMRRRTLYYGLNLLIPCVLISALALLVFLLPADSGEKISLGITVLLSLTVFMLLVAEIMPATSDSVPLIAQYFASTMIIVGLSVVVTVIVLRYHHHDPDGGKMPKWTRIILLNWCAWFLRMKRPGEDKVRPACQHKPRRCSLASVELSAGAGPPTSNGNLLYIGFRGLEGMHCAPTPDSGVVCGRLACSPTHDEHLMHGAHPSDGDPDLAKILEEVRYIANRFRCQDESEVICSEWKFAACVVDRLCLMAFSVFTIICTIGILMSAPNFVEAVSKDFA

[2] = target: T1, Neuronal acetylcholine receptor subunit alpha-7 (Homo sapiens, UniProt P36544); test: Agonist activity at human alpha7 nAChR expressed in Xenopus laevis oocytes assessed as induction of acetylcholine-stimulated peak inward current by two-electrode voltage clamp assay; type: cell-based; details: Oocyte
T1 sequence (P36544 whole entry): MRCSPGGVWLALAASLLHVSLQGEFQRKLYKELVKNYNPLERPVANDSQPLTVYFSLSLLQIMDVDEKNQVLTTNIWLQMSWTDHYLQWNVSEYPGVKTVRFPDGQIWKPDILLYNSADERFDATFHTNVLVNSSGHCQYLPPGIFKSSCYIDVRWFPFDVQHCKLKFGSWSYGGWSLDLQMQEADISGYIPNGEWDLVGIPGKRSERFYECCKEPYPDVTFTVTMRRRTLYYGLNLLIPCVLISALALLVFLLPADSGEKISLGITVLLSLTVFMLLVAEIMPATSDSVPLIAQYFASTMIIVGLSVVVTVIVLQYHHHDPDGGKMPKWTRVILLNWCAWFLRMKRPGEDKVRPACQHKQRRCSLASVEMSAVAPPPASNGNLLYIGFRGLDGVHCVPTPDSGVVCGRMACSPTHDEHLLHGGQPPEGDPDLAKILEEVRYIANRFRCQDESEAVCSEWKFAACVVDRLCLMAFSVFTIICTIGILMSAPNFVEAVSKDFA

[3] = target: T1, Neuronal acetylcholine receptor subunit alpha-7; test: Silent agonist activity at human alpha7 nAChR expressed in Xenopus laevis oocytes assessed as induction of PNU-120596-stimulated peak current at 100 uM; type: cell-based; details: Oocyte
[4] = target: T1, Neuronal acetylcholine receptor subunit alpha-7; test: Silent agonist activity at human alpha7 nAChR expressed in Xenopus laevis oocytes assessed as induction of TQS-stimulated peak current; type: cell-based; details: Oocyte
[5] = target: T1, Neuronal acetylcholine receptor subunit alpha-7; test: Silent agonist activity at human alpha7 nAChR expressed in Xenopus laevis oocytes assessed as induction of PNU-120596-stimulated peak current in presence of methyllycaconitine; type: cell-based; details: Oocyte
[6] = target: T1, Neuronal acetylcholine receptor subunit alpha-7; test: Silent agonist activity at human alpha7 nAChR expressed in Xenopus laevis oocytes assessed as induction of PNU-120596-stimulated peak current; type: cell-based, Oocyte
[7] = target: T1, Neuronal acetylcholine receptor subunit alpha-7; test: Antagonist activity at human alpha7 nAChR expressed in Xenopus laevis oocytes assessed as reduction of acetylcholine-induced peak current at 100 uM; type: cell-based; details: Oocyte
[8] = target: T1, Neuronal acetylcholine receptor subunit alpha-7; test: Agonist activity at human alpha7 nAChR expressed in Xenopus laevis oocytes assessed as induction of peak current at 100 uM; type: cell-based; details: Oocyte

With `O=C(c1ccc(-c2cccc(C(F)(F)F)c2)o1)N1CCN2CCC1CC2` the Activity [1] was less than 2% and the Activity [2] was less than 2%.

With `c1ccc(-c2cncc(C3=NCCCC3)c2)cc1` the Activity [3] was “Active”, the Activity [4] was “Active” and the Activity [5] was “inactive”. The IC50 [6] was 41 µM, the Activity [7] was “Active” and the Activity [8] was “inactive”.
